Results published in publication PMC6384730, “Systematic Identification of Thiosemicarbazides for Inhibition of Toxoplasma gondii Growth In Vitro” (Molecules, 2019).
Converted amounts (≈) assume the structure as drawn. “And” between values parts separate entries of the source, which are not always exact repeats. Equal values may be shown once. Read-outs that look alike come from different tables or passages of the source.

Legend:
[1] = test system: Toxoplasma gondii; set-up: method as in PMID 25010466; settings: previously reported; cited from earlier work
[2] = test system: L929 cells; assay: MTT cell viability (cytotoxicity) assay on L929 cells; type: cell-based, mouse; settings: L929 cells, 24 h exposure
Description: (§1) Cells were trypsinized twice a week, and seeded at density 1 × 10^6 per T25 cell culture flask, and incubated for 24-48 h at 37 °C and 10% CO2 to achieve a confluent monolayer. […] The final concentration of DMSO in compounds dilutions was not higher than 1.00%. […] Dilution of the all compounds 2-22 and drug were freshly prepared before the cells were exposed. […] The MTT assay was used according to international standards: ISO 10993-5:2009(E), Biological evaluation of medical devices, Part 5: Tests for in vitro cytotoxicity. […] Afterward, the culture medium in the plates was replaced by 100 μL of compounds and sulfadiazine suspension and the cells were exposed for 24 h. Then, 1 mg/mL of MTT solution in RPMI 1640 without phenol red was prepared and 50 μL of the solution was added to each well and incubated at 37 °C, 10% CO2 for 2 h. Mitochondrial dehydrogenases of viable cells reduced the yellowish water-soluble MTT to water-insoluble formazan crystals, which were solubilized with dimethyl sulfoxide (DMSO). The cell culture medium was aspirated cautiously, after which 150 μL DMSO was added to each well, the plates were gently mixed, then 25 μL 0.1 M glycine buffer (pH = 10.5) (Sigma) was added. Optical density was read on the ELISA reader (Multiskan EX, Labsystems, Vienna, VA, USA) at 570 nm. The results were expressed as the percentage of viability compared to untreated cells. All experiments were performed in triplicate. Moreover, cells were treated with 4.0-0.03% concentration of DMSO as a compounds solvent (data not shown).

[3] = as above; type: cell-based, mouse; settings: mouse, L929 mouse fibroblast cells, 24 h, % of untreated cells; for viability at 24 h, 62.5 µg/mL: 62.50 µg/mL
Description: as §1

[4] = test system: T. gondii RH tachyzoites; assay: Influence on T. gondii proliferation ([3H]uracil incorporation) in infected Vero cells; type: cell-based, Toxoplasma gondii; settings: Toxoplasma gondii, Vero
Description: Vero cell line (African green monkey kidney) (ATCC® CCL-81™) were maintained in EMEM (EMEM/10%HIFBS/P/S) (Eagle’s Minimum Essential Medium—ATCC® 30-2003™) culture medium supplemented with 10% HIFBS (Heat-Inactivated (1 h in 56°C) Fetal Bovine Serum—ATCC), 100 U/mL penicillin, 100 μg/mL streptomycin. The cell line was trypsinized (using Trypsin-EDTA Solution, 1X ATCC® 30-2101™) twice a week, and seeded at density 1 × 10^6 per T25 cell culture flask (Falcon), and incubated for 24–48 h at 37 °C and 5 CO2 to achieve a confluent monolayer. The highly virulent RH strain of Toxoplasma gondii, haplogroup I (ATCC® PRA-310™) were maintained as tachyzoites according to the ATCC product sheet, in DMEM (Dulbecco’s Modified Eagle’s Medium—ATCC® 30-2002™) (DMEM/3%HIFBS/P/S—parasite culture medium) under condition 37 °C and 5 CO2 and passage twice per week.
The Vero cells were seeded on 96-well plates (1 × 10^5 cells/100 µL/well) in EMEM/10%HIFBS/P/S. After 24 h of incubation medium was removed and then T. gondii RH tachyzoites were added to the cell monolayers at density 1 × 10^5 cells/100 µL/well in DMEM/3%HIFBS/P/S. One hour later different compounds and sulfadiazine dilutions (100 µL/well) in parasite culture medium were added to the cell monolayers with T. gondii. After subsequent 24 h of incubation 1 µCi/well [5,6-^3H] uracil (Moravek Biochemicals Inc., Brea, CA, USA) was applied to each microculture for further 72 h. The amount of the isotope incorporated into the parasite nucleic acid pool, corresponding to the parasite growth, was measured by liquid scintillation counting using 1450 Microbeta Plus Liquid Scintillation Counter (Wallac Oy, Turku, Finland). The results were expressed as counts per minute (CPM) and transformed to the percentage of viability compared to untreated cells. All experiments were performed in triplicate.

[5] = IC50 greater than 125 µg/mL (highest concentration tested), calculated by extrapolation of the curves (GraphPad Prism), read-out: IC50 (50% inhibition of T. gondii proliferation in vitro), extrapolated
[6] = RH tachyzoites in Vero cells, [3H]uracil incorporation, highest concentration tested 125 µg/mL, read-out: IC50 (50% inhibition of T. gondii proliferation in vitro)

Row | SMILES | melting point | IC50 against proliferation of Toxoplasma gondii [1] | fold more potent than sulfadiazine [1] | CC30 (concentration required for 30% cells proliferation inhibition) [2] | viability at 24 h, 3.91 µg/mL [3] | viability at 24 h, 7.81 µg/mL [3] | viability at 24 h, 15.63 µg/mL [3] | viability at 24 h, 31.25 µg/mL [3] | viability at 24 h, 62.5 µg/mL [3] | viability at 24 h, 125 µg/mL [3] | viability at 24 h, 250 µg/mL [3] | viability at 24 h, 500 µg/mL [3] | IC50 [4, 5] | IC50 [4, 6]
1 | O=C(NNC(=S)Nc1ccc(F)cc1)c1cccs1 [Compound 1] | – | 33.17 µg/mL | at least 15 fold | – | – | – | – | – | – | – | – | – | – | –
2 | COc1ccc(NC(=S)NNC(=O)c2[nH]cnc2C)cc1OC [Compound 13, 4-(3,4-Dimethoxyphenyl)-1-(4-methylimidazol-5-oyl)thiosemicarbazide] | 223 to 225 °C | – | – | >500.00 µg/mL and >500 µg/mL | 107% | 105% | 103% | 99.8% | 97.5% | 95.7% | 94.2% | 77% | ~175 µg/mL (≈ 522 µM) | –
3 | Cc1ccc(NC(=S)NNC(=O)c2[nH]cnc2C)cc1Cl [Compound 14, 4-(3-Chloro-4-methylphenyl)-1-(4-methylimidazol-5-oyl)thiosemicarbazide] | 213 to 215 °C | – | – | 28.18 µg/mL | 101% | 91.5% | 76.6% | 67.5% | 61.5% | 49.3% | 21.1% | 10.4% | – | 18.6 µg/mL (≈ 57.5 µM)
4 | Cc1ccccc1NC(=S)NNC(=O)c1[nH]cnc1C [Compound 16, 1-(4-Methylimidazol-5-oyl)-4-(2-methylphenyl)thiosemicarbazide] | 210 to 212 °C | – | – | 288.40 µg/mL | 103% | 102% | 100% | 93.8% | 91.2% | 79.7% | 71.5% | 63.4% | ~150 µg/mL (≈ 519 µM) | –
5 | Cc1nc[nH]c1C(=O)NNC(=S)Nc1c(C(C)C)cccc1C(C)C [Compound 22, 4-(2,6-Diisopropylphenyl)-1-(4-methylimidazol-5-oyl)thiosemicarbazide] | 202 to 204 °C | – | – | 190.55 µg/mL | 116% | 110% | 101% | 80.7% | 79.8% | 76.6% | 68.2% | 58.8% | – | 97.7 µg/mL (≈ 272 µM)
6 | Nc1ccc(S(=O)(=O)Nc2ncccn2)cc1 [Sulfadiazine, 4-amino-N-(2-pyrimidinyl)benzenesulfonamide, reference compound] | – | > 500 µg/mL | – | 1251.12 µg/mL | – | – | – | – | – | – | – | – | ~2720 µg/mL (≈ 10900 µM) | –

Further lines, with some results ahead:

Row | melting point | SMILES | IC50 against proliferation of Toxoplasma gondii [1] | fold more potent than sulfadiazine [1] | CC30 (concentration required for 30% cells proliferation inhibition) [2] | viability at 24 h, 3.91 µg/mL [3] | viability at 24 h, 7.81 µg/mL [3] | viability at 24 h, 15.63 µg/mL [3] | viability at 24 h, 31.25 µg/mL [3] | viability at 24 h, 62.5 µg/mL [3] | viability at 24 h, 125 µg/mL [3] | viability at 24 h, 250 µg/mL [3] | viability at 24 h, 500 µg/mL [3] | IC50 [4, 5] | IC50 [4, 6]
7 | 193 to 195 °C | Cc1cccc(NC(=S)NNC(=O)c2[nH]cnc2C)c1 [Compound 17, 1-(4-Methylimidazol-5-oyl)-4-(3-methylphenyl)thiosemicarbazide] | – | – | 50.12 µg/mL | 94.1% | 88.7% | 85.7% | 74.8% | 64.9% | 56.5% | 50% | 40.7% | – | 37.1 µg/mL (≈ 128 µM)
8 | 215 to 217 °C | Cc1nc[nH]c1C(=O)NNC(=S)Nc1ccc(N(C)C)cc1 [Compound 19, 1-(4-Methylimidazol-5-oyl)-4-(4-dimethyloaminophenyl)thiosemicarbazide] | – | – | 112.20 µg/mL | 93.1% | 91.8% | 85.7% | 80.8% | 78.6% | 68.5% | 60.8% | 53.3% | ~165 µg/mL (≈ 517 µM) | –
9 | 225 to 227 °C | CCN(CC)c1ccc(NC(=S)NNC(=O)c2[nH]cnc2C)cc1 [Compound 20, 1-(4-Methylimidazol-5-oyl)-4-(4-diethyloaminophenyl)thiosemicarbazide] | – | – | 63.10 µg/mL | 102% | 93.6% | 85.7% | 71.3% | 67.9% | 66% | 53.4% | 12.9% | – | 25.7 µg/mL (≈ 74.2 µM)
